Data as given in ChEMBL document CHEMBL3399978, “Synthesis and optimization of picolinamide derivatives as a novel class of 11β-hydroxysteroid dehydrogenase type 1 (11β-HSD1) inhibitors” (Bioorg Med Chem Lett, 2015).
Blank lines part the entries; values can stand above or below the compound they belong to. Activity calls are given as the source filed them. The rule behind the calls is not given here.

How the values were obtained:
[1] = Metabolic stability in mouse liver microsomes assessed as compound remaining after 30 mins; assay type: ADME; conditions: read-out: Stability
Mus musculus [2] = assay: Toxicity in ob/ob type 2 diabetic mouse model assessed as HDL cholesterol at 10 mg/kg, po once daily after 10 days relative to vehicle treated control; assay type: organism-based; parameters: dose 10 mg/kg, route oral; conditions: in vivo, 240 h
Mus musculus [3] = assay: Ex vivo inhibition of 11beta-HSD1 in male C57BL/6 mouse epididymal fat assessed as conversion of cortisone to cortisol at 30 mg/kg, po after 6 hrs by enzyme immunoassay; assay type: functional; conditions: C57BL/6, 6 h
[4] = Oral bioavailability in mouse at 20 mg/kg; assay type: ADME, organism-based; conditions: in vivo
[5] = target: 11-beta-hydroxysteroid dehydrogenase 1 (Mus musculus, UniProt P50172); assay: Inhibition of mouse 11beta-HSD1 using microsomal fraction and NADPH assessed as conversion of cortisone to cortisol by biochemical enzyme assay
11-beta-hydroxysteroid dehydrogenase 1 (Mus musculus, UniProt P50172), sequence (P50172 whole entry): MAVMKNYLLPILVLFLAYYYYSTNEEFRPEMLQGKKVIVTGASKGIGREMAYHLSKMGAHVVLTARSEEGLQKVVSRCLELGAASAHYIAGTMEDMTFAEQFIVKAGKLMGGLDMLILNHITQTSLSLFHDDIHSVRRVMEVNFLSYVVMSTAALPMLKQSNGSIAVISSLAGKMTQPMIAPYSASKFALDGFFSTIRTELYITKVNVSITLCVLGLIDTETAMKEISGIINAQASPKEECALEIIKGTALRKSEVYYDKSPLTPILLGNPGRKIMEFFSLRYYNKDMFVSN

Mus musculus [6] = assay: Ex vivo inhibition of 11beta-HSD1 in male C57BL/6 mouse liver assessed as conversion of cortisone to cortisol at 30 mg/kg, po after 6 hrs by enzyme immunoassay; assay type: functional; conditions: C57BL/6, Liver
Mus musculus [7] = assay: Ex vivo inhibition of 11beta-HSD1 in male C57BL/6 mouse epididymal fat assessed as conversion of cortisone to cortisol at 30 mg/kg, po after 2 hrs by enzyme immunoassay; assay type: functional; conditions: C57BL/6, 2 h
[8] = Clearance in mouse at 5 mg/kg, iv; assay type: ADME, organism-based; parameters: dose 5 mg/kg, route intravenous; conditions: in vivo
Mus musculus [9] = assay: Reduction in non-fasting blood glucose level in ob/ob type 2 diabetic mouse model at 10 mg/kg, po once daily after 10 days relative to vehicle treated control; assay type: functional; conditions: 240 h
[10] = target: T1, 11-beta-hydroxysteroid dehydrogenase 1 (Homo sapiens, UniProt P28845); assay: Inhibition of human 11beta-HSD1 expressed in HEK293 cells using NADPH assessed as conversion of cortisone to cortisol by cell-based assay
T1 sequence (P28845 whole entry): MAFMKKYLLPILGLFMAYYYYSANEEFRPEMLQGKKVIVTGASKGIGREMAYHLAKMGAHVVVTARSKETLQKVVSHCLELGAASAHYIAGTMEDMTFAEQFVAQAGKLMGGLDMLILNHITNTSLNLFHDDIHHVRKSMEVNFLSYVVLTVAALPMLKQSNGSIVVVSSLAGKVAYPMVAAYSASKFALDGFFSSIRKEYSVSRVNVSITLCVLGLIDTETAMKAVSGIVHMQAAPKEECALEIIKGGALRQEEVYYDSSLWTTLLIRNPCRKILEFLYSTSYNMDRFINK

Mus musculus [11] = assay: Reduction in triglyceride level in ob/ob type 2 diabetic mouse model at 10 mg/kg, po once daily after 10 days relative to vehicle treated control; assay type: functional, organism-based; parameters: dose 10 mg/kg
Mus musculus [12] = assay: Toxicity in ob/ob type 2 diabetic mouse model assessed as body weight at 10 mg/kg, po once daily after 10 days relative to vehicle treated control; assay type: organism-based; parameters: dose 10 mg/kg, route oral; conditions: in vivo, 240 h
[13] = target: T1, 11-beta-hydroxysteroid dehydrogenase 1; assay: Inhibition of human 11beta-HSD1 using microsomal fraction and NADPH assessed as conversion of cortisone to cortisol by biochemical enzyme assay
Mus musculus [14] = assay: Toxicity in ob/ob type 2 diabetic mouse model assessed as food intake at 10 mg/kg, po once daily after 10 days relative to vehicle treated control; assay type: organism-based; parameters: dose 10 mg/kg, route oral; conditions: in vivo, 240 h
Mus musculus [15] = assay: Reduction in LDL cholesterol level in ob/ob type 2 diabetic mouse model at 10 mg/kg, po once daily after 10 days relative to vehicle treated control; assay type: functional, organism-based; parameters: dose 10 mg/kg
Mus musculus [16] = assay: Ex vivo inhibition of 11beta-HSD1 in male C57BL/6 mouse liver assessed as conversion of cortisone to cortisol at 30 mg/kg, po after 2 hrs by enzyme immunoassay; assay type: functional; conditions: C57BL/6, Liver
[17] = target: T2, 11-beta-hydroxysteroid dehydrogenase type 2 (Homo sapiens, UniProt P80365); assay: Inhibition of human 11beta-HSD2 using microsomal fraction and NADPH assessed as conversion of cortisone to cortisol by biochemical enzyme assay
T2 sequence (P80365 whole entry): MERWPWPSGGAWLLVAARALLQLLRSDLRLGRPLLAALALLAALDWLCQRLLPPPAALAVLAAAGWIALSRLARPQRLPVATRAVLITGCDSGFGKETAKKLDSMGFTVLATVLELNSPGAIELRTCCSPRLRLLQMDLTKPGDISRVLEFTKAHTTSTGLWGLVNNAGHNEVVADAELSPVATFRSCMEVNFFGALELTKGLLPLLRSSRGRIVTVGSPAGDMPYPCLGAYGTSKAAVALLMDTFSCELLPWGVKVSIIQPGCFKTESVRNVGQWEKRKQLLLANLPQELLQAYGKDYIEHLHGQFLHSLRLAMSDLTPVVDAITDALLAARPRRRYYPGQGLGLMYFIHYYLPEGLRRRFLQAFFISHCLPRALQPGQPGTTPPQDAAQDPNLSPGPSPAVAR

remaining at 0.5 h [1]: 74%
SMILES: Cc1ccc(N2CCN(c3cccc(C(=O)N[C@H]4C5CC6CC4C[C@](O)(C6)C5)n3)CC2)cc1

remaining at 0.5 h [1]: 32%
SMILES: NC(=O)c1ccc(N2CCN(c3cccc(C(=O)N[C@H]4C5CC6CC4C[C@](O)(C6)C5)n3)CC2)c(Cl)c1

remaining at 0.5 h [1]: 57%
SMILES: C[C@@H]1CN(c2ccc(C(N)=O)cc2)CCN1c1cccc(C(=O)N[C@H]2C3CC4CC2C[C@](O)(C4)C3)n1

remaining at 0.5 h [1]: 88%
SMILES: N#Cc1ccc(N2CCN(c3cccc(C(=O)N[C@H]4C5CC6CC4C[C@](O)(C6)C5)n3)CC2)c(Cl)c1

remaining at 0.5 h [1]: 73%
SMILES: O=C(N[C@H]1C2CC3CC1C[C@](O)(C3)C2)c1cccc(N2CCN(c3ccc(F)cc3)CC2)n1

bioavailability [4]: 5%
SMILES: N#Cc1ccc(N2CCN(c3cccc(C(=O)N[C@H]4C5CC6CC4C[C@](O)(C6)C5)n3)CC2)cc1
inhibition in vivo at 30 mg/kg (Mus musculus [3]): < 10%
inhibition in vivo at 30 mg/kg (Mus musculus [6]): < 10%

remaining at 0.5 h [1]: 61%
SMILES: CNC(=O)c1ccc(N2CCN(c3cccc(C(=O)N[C@H]4C5CC6CC4C[C@](O)(C6)C5)n3)[C@H](C)C2)cc1

remaining at 0.5 h [1]: 79%
SMILES: O=C(N[C@H]1C2CC3CC1C[C@](O)(C3)C2)c1cccc(N2CCN(c3ccc(C(F)(F)F)cc3)CC2)n1

bioavailability [4]: 17%
IC50 [5]: 2.5 nM
clearance [8]: 29.7 mL/min/kg
IC50 [10]: 3.9 nM
IC50 [13]: 1.6 nM
remaining at 0.5 h [1]: 87%
IC50 [17]: > 10000 nM
SMILES: CS(=O)(=O)c1ccc(N2CCN(c3cccc(C(=O)N[C@H]4C5CC6CC4C[C@](O)(C6)C5)n3)CC2)cc1
inhibition in vivo at 30 mg/kg (Mus musculus [3]): 22%
inhibition in vivo at 30 mg/kg (Mus musculus [6]): 15%
inhibition in vivo at 30 mg/kg (Mus musculus [7]): 70%
inhibition in vivo at 30 mg/kg (Mus musculus [16]): 53%

remaining at 0.5 h [1]: 86%
SMILES: COc1ccc(N2CCN(c3cccc(C(=O)N[C@H]4C5CC6CC4C[C@](O)(C6)C5)n3)CC2)cc1

remaining at 0.5 h [1]: 69%
SMILES: O=C(N[C@H]1C2CC3CC1C[C@](O)(C3)C2)c1cccc(N2CCN(c3ccc(Cl)cc3)CC2)n1

remaining at 0.5 h [1]: 79%
SMILES: N#Cc1ccc(N2CCN(c3cccc(C(=O)N[C@H]4C5CC6CC4C[C@](O)(C6)C5)n3)CC2)cc1F

remaining at 0.5 h [1]: 74%
SMILES: O=C(N[C@H]1C2CC3CC1C[C@](O)(C3)C2)c1cccc(N2CCN(c3ccc([N+](=O)[O-])cc3)CC2)n1

remaining at 0.5 h [1]: 28%
SMILES: NC(=O)c1ccc(N2CCN(c3cccc(C(=O)N[C@H]4C5CC6CC4C[C@](O)(C6)C5)n3)CC2)cc1F

remaining at 0.5 h [1]: 65%
SMILES: NC(=O)c1ccc(N2CCN(c3cccc(C(=O)N[C@H]4C5CC6CC4C[C@](O)(C6)C5)n3)CC2)cc1

remaining at 0.5 h [1]: 81%
SMILES: N#Cc1ccc(N2CCN(c3cccc(C(=O)N[C@H]4C5CC6CC4C[C@](O)(C6)C5)n3)CC2)nc1

remaining at 0.5 h [1]: 97%
SMILES: Nc1ccc(N2CCN(c3cccc(C(=O)N[C@H]4C5CC6CC4C[C@](O)(C6)C5)n3)CC2)cc1

Further lines, the compound ahead of its results:

SMILES: C[C@@H]1CN(c2ccc(S(C)(=O)=O)cc2)CCN1c1cccc(C(=O)N[C@H]2C3CC4CC2C[C@](O)(C4)C3)n1
Activity (Mus musculus [2]): Non-toxic
inhibition in vivo at 30 mg/kg (Mus musculus [3]): 86%
bioavailability [4]: 41%
IC50 [5]: 1.8 nM
inhibition in vivo at 30 mg/kg (Mus musculus [6]): 77%
inhibition in vivo at 30 mg/kg (Mus musculus [7]): 95%
clearance [8]: 14.2 mL/min/kg
inhibition in vivo at 10 mg/kg (Mus musculus [9]): 41%
IC50 [10]: 3.1 nM
inhibition (Mus musculus [11]): Active
Activity (Mus musculus [12]): Non-toxic
IC50 [13]: 2.2 nM
Activity (Mus musculus [14]): Non-toxic
inhibition (Mus musculus [15]): Active
inhibition in vivo at 30 mg/kg (Mus musculus [16]): 85%
remaining at 0.5 h [1]: 97%
IC50 [17]: > 10000 nM

SMILES: N#Cc1ccc(N2CCC(c3cccc(C(=O)N[C@H]4C5CC6CC4C[C@](O)(C6)C5)n3)CC2)cc1
remaining at 0.5 h [1]: 58%

SMILES: C[C@H]1CN(c2ccc(C#N)cc2)CCN1c1cccc(C(=O)N[C@H]2C3CC4CC2C[C@](O)(C4)C3)n1
remaining at 0.5 h [1]: 82%

SMILES: C[C@@H]1CN(c2ccc(C#N)cc2)CCN1c1cccc(C(=O)N[C@H]2C3CC4CC2C[C@](O)(C4)C3)n1
remaining at 0.5 h [1]: 84%

SMILES: C[C@@H]1CN(c2ccc(C(C)(C)O)cc2)CCN1c1cccc(C(=O)N[C@H]2C3CC4CC2C[C@](O)(C4)C3)n1
inhibition in vivo at 30 mg/kg (Mus musculus [3]): 77%
bioavailability [4]: 32%
IC50 [5]: 6.6 nM
inhibition in vivo at 30 mg/kg (Mus musculus [6]): 58%
inhibition in vivo at 30 mg/kg (Mus musculus [7]): 94%
clearance [8]: 7.67 mL/min/kg
IC50 [10]: 4.9 nM
IC50 [13]: 4.1 nM
inhibition in vivo at 30 mg/kg (Mus musculus [16]): 73%
remaining at 0.5 h [1]: 84%
IC50 [17]: > 10000 nM

SMILES: COc1ccc(N2CCN(c3cccc(C(=O)N[C@H]4C5CC6CC4C[C@](O)(C6)C5)n3)[C@H](C)C2)cc1
remaining at 0.5 h [1]: 80%

SMILES: N#Cc1ccc(C2CCN(c3cccc(C(=O)N[C@H]4C5CC6CC4C[C@](O)(C6)C5)n3)CC2)cc1
remaining at 0.5 h [1]: 46%

SMILES: N#Cc1ccc(C2CCN(c3cccc(C(=O)N[C@H]4C5CC6CC4C[C@](O)(C6)C5)n3)CC2)nc1
remaining at 0.5 h [1]: 63%

SMILES: C[C@H]1CN(c2ccc(S(C)(=O)=O)cc2)CCN1c1cccc(C(=O)N[C@H]2C3CC4CC2C[C@](O)(C4)C3)n1
IC50 [10]: 6.8 nM
IC50 [13]: 4.2 nM
remaining at 0.5 h [1]: 88%

SMILES: N#Cc1ccc(N2CCC(c3cccc(C(=O)N[C@H]4C5CC6CC4C[C@](O)(C6)C5)n3)CC2)nc1
remaining at 0.5 h [1]: 52%

SMILES: COc1ccc(N2CCN(c3cccc(C(=O)N[C@H]4C5CC6CC4C[C@](O)(C6)C5)n3)[C@@H](C)C2)cc1
remaining at 0.5 h [1]: 77%
